Reference: patent US6579903B2, “Klainetins and their derivatives, method for their preparation and use thereof” (Aventis Pharma Deutschland GmbH, priority 2000, dated 2003)

Key:
Cyclin D1/CDK4 = Cyclin D1/CDK4 (Homo sapiens, UniProt P11802); test: CDK4 kinase inhibition, FlashPlate phosphorylation of peptide substrate; type: biochemical; conditions: purified enzyme, 2 μM ATP, room temperature
Description: (§1) The cytostatic activities were determined by using purified enzymes in 384-well microtiter plates (coated FlashPlates, NEN Life Science). The enzyme activities were determined by means of phosphorylation of specific peptide substrates. A klainetin dilution series prepared beforehand, with concentrations of 100, 50, 25, 12.5, 6.25, 3.125, 1.5625, 0.7813, 0.3906, 0.195, 0.094, 0.047 and 0 μM, were pipetted into the wells in the appropriate order. The reaction mixture (radiolabeled ATP, buffer solution pH 7.4 and enzyme solutions) was then added followed by incubation at room temperature for 1 h.
Description of CDK4 reaction mixture:
Kinase buffer: 50 mM HEPES, 10 mM MgCl2, 2.5 mM EGTA pH8.0, 10 mM β-glycerol phosphate, 1 mM orthovanadate, 1 mM sodium fluoride, and 1 mM DTT
Biotinylated peptide substrate for FlashPlate coating (1 mg/ml solution in PBS buffer)
ATP solution: 100 μCi/ml 33P-γ-ATP and 10 μM ATP
Cyclin D1/CDK4 enzyme solution: 100 mg/ml in kinase buffer
Wash solution: 3% phosphoric acid
30 μl of diluted klainetin solution, 20 μl of ATP/enzyme solution (final conc. 1 μCi 33P-γ-ATP, 2 μM ATP and 1 μg of enzyme) […]
(§2) The activity of the kinases (CDK4 or KDR) was meaured by incorporation of radioactive phosphate from ATP into the substrate and the inhibitory action of the klainetins (IC50) was calculated.

CDK2 = CDK2 (Homo sapiens, UniProt P24941); test: CDK2 kinase inhibition (IC50); type: biochemical; conditions: purified enzyme
KDR = KDR (Homo sapiens, UniProt P35968); test: KDR kinase inhibition, phosphorylation of PLCγ1 peptide substrate; type: biochemical; conditions: purified enzyme, 5 μM ATP, room temperature 1 h
Description: as §1
Description of KDR reaction mixture:
Kinase buffer: 50 mM MOPS, pH7.4, 10 mM MgCl2, 2 mM DTT, 2.5 mM EGTA, 10 mM β-glycerol phosphate, 1 mM orthovanadate, and 1 mM sodium fluoride
ATP solution: 25 μCi/ml 33P-γ-ATP und 12.5 μM ATP
KDR enzyme solution: 3.5 μg/ml in kinase buffer
Wash solution: PBS (without Mg^2+, Ca^2+)
10 μl diluted klainetin solution
20 μl of enzyme solution (3.5 μg/ml; 70 ng/well)
20 μl of ATP solution (final concentration 0.5 μCi and 5 μM ATP/well)
Incubation at room temperature for 1 h, followed by washing 3× with 75 μl of wash solution and measurement in MicroBeta Counter (Wallac) for 30 sec.
as §2

[1] = Solubility (characterization); type: physicochemical
[2] = Stability (characterization); type: physicochemical

Cyclin D1/CDK4, sequence (P11802 whole entry, species assumed): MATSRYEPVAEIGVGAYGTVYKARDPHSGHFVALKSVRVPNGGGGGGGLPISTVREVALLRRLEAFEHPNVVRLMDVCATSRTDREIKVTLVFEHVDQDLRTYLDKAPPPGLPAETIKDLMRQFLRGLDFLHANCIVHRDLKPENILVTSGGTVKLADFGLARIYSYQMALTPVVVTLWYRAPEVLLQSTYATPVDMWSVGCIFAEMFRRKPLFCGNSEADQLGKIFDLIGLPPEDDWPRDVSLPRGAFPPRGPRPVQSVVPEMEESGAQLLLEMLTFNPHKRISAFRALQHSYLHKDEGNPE
Cyclin D1/CDK4, sequence (P24385 whole entry partner, species assumed): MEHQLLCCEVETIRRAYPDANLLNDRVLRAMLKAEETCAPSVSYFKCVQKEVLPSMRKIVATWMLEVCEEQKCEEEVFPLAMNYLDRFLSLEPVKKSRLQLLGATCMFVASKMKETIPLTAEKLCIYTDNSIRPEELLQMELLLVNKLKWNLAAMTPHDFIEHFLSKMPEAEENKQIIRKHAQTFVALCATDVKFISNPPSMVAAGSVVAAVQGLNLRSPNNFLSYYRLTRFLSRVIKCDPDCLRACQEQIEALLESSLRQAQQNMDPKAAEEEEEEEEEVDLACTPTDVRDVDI
KDR, sequence (P35968 20-1356, species assumed): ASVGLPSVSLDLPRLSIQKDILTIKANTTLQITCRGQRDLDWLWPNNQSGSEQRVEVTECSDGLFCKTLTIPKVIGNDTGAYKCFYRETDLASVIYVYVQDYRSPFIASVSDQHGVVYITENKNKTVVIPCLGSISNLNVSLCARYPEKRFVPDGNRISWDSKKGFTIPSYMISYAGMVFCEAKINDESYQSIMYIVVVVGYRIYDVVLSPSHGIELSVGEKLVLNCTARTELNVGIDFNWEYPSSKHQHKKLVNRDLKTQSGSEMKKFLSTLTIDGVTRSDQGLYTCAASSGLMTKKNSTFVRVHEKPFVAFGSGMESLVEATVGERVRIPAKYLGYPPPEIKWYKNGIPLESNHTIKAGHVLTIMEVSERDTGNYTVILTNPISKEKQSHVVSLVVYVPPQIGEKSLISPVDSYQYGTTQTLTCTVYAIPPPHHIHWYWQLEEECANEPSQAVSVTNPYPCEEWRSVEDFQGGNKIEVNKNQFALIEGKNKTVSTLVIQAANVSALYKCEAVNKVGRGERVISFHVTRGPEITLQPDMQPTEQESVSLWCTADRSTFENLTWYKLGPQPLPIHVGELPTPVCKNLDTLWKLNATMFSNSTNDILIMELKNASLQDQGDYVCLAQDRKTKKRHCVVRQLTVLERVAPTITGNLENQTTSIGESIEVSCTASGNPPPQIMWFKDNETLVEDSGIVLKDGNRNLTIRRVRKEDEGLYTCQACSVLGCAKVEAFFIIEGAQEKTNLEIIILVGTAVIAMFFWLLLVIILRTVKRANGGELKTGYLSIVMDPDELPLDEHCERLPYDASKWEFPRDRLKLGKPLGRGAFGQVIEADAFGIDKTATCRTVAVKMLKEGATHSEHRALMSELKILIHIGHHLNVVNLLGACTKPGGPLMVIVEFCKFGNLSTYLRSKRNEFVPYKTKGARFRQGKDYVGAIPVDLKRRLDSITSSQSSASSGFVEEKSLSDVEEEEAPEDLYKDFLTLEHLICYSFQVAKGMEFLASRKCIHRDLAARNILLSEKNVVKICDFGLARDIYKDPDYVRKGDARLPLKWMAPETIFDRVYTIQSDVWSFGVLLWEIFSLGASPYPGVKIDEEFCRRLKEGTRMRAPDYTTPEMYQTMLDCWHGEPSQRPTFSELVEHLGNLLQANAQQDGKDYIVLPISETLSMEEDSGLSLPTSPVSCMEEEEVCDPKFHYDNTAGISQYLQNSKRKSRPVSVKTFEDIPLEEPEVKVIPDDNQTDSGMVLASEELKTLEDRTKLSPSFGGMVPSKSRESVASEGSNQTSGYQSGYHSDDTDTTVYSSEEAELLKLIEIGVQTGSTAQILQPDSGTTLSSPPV

IC50 (Cyclin D1/CDK4) [µM]	IC50 (CDK2) [µM]	IC50 (KDR) [µM]	solubility in polar organic solvents [1]	solubility in water [1]	stability in the alkaline and strongly acidic range ([2]; alkaline and strongly acidic range)	stability in a neutral and mildly acidic environment [2]	stability in the alkaline range ([2]; alkaline range)	Structure (SMILES)
2.09	21.5	6.96	soluble	only slightly soluble	unstable	stable	–	COc1c(Cc2cccc(O)c2O)c(O)cc2c1C(=O)CC(c1ccccc1)O2 (centres unmarked) [Klainetin A, klainetin A]
1.14	6.04	6.48	soluble	only slightly soluble	–	stable	unstable	COc1cc(O)c(Cc2cccc(O)c2O)c(O)c1C(=O)/C=C/c1ccccc1 [Klainetin B, klainetin B]
